Source: paper PMC5218480 (PLoS ONE, 2017)

System: MV-4-11 cells
Assay: Gene expression microarray analysis (Affymetrix PrimeView) and GSEA
Type: cell-based, human
Parameters: RFU PODN (11730768_x_at) / Fold change /veh PODN (11730768_x_at) / RFU LINC00158 (11744669_a_at) / Fold change /veh LINC00158 (11744669_a_at) / RFU DUSP10 (11751237_a_at) / Fold change /veh DUSP10 (11751237_a_at) / RFU ID3 (11757404_x_at) / Fold change /veh ID3 (11757404_x_at) / RFU PLEKHG5 (11737974_s_at) / Fold change /veh PLEKHG5 (11737974_s_at) / RFU LRRC4B (11730491_at) / Fold change /veh LRRC4B (11730491_at) / RFU GIMAP4 (11747438_a_at) / Fold change /veh GIMAP4 (11747438_a_at) / RFU KRT8 (11758183_x_at) / Fold change /veh KRT8 (11758183_x_at) / RFU CNN1 (11734310_a_at) / Fold change /veh CNN1 (11734310_a_at) / RFU VPS37D (11726825_at) / Fold change /veh VPS37D (11726825_at) / RFU C10orf10 (11716522_x_at) / Fold change /veh C10orf10 (11716522_x_at) / RFU KIR2DL2 /// KIR2DL4 /// KIR2DL5A /// KIR2DL5B /// KIR2DS1 /// KIR2DS2 /// KIR2DS3 /// KIR2DS4 /// KIR3DL3 /// KIR3DL3 /// KIR3DS1 (11738374_at) / Fold change /veh KIR2DL2 /// KIR2DL4 /// KIR2DL5A /// KIR2DL5B /// KIR2DS1 /// KIR2DS2 /// KIR2DS3 /// KIR2DS4 /// KIR3DL3 /// KIR3DL3 /// KIR3DS1 (11738374_at) / RFU C1QL1 (11718748_at) / Fold change /veh C1QL1 (11718748_at) / RFU TMPRSS4 (11747572_a_at) / Fold change /veh TMPRSS4 (11747572_a_at) / RFU HAMP (11756126_x_at) / Fold change /veh HAMP (11756126_x_at) / RFU RNFT2 (11725882_a_at) / Fold change /veh RNFT2 (11725882_a_at) / RFU NR4A2 (11747474_a_at) / Fold change /veh NR4A2 (11747474_a_at) / RFU ABCC12 (11746883_a_at) / Fold change /veh ABCC12 (11746883_a_at) / RFU TMEM136 (11760407_x_at) / Fold change /veh TMEM136 (11760407_x_at) / RFU CLDN22 /// WWC2 (11732394_at) / Fold change /veh CLDN22 /// WWC2 (11732394_at) / RFU HLA-DPB1 (11760878_x_at) / Fold change /veh HLA-DPB1 (11760878_x_at) / RFU SPINT1 (11716480_a_at) / Fold change /veh SPINT1 (11716480_a_at) / RFU GAP43 (11754022_s_at) / Fold change /veh GAP43 (11754022_s_at) / RFU A4GNT (11735810_at) / Fold change /veh A4GNT (11735810_at) / RFU PRB3 (11715151_x_at) / Fold change /veh PRB3 (11715151_x_at) / RFU TUBB4B (11761932_at) / Fold change /veh TUBB4B (11761932_at) / RFU CAPN14 (11732068_a_at) / Fold change /veh CAPN14 (11732068_a_at) / RFU TMCC2 (11721928_a_at) / Fold change /veh TMCC2 (11721928_a_at) / RFU IRGQ (11745062_a_at) / Fold change /veh IRGQ (11745062_a_at) / RFU FAM174B (11720279_a_at) / Fold change /veh FAM174B (11720279_a_at) / RFU TMPRSS4 (11748680_a_at) / Fold change /veh TMPRSS4 (11748680_a_at) / RFU FAM212B (11763350_a_at) / Fold change /veh FAM212B (11763350_a_at) / RFU PLEKHG5 (11743358_a_at) / Fold change /veh PLEKHG5 (11743358_a_at) / RFU ZSCAN30 (11745921_a_at) / Fold change /veh ZSCAN30 (11745921_a_at) / RFU CMKLR1 (11741424_a_at) / Fold change /veh CMKLR1 (11741424_a_at) / RFU LOC101060620 /// MAPK8IP1 (11723275_at) / Fold change /veh LOC101060620 /// MAPK8IP1 (11723275_at) / RFU SPTSSB (11747773_x_at) / Fold change /veh SPTSSB (11747773_x_at) / RFU PRSS12 (11739890_at) / Fold change /veh PRSS12 (11739890_at) / RFU BIN1 (11741810_x_at) / Fold change /veh BIN1 (11741810_x_at) / RFU WNT11 (11732464_a_at) / Fold change /veh WNT11 (11732464_a_at) / RFU C10orf10 (11716521_a_at) / Fold change /veh C10orf10 (11716521_a_at) / RFU C5orf56 (11738089_at) / Fold change /veh C5orf56 (11738089_at) / RFU CYB561 (11721691_x_at) / Fold change /veh CYB561 (11721691_x_at) / RFU ANKRD19P (11752326_a_at) / Fold change /veh ANKRD19P (11752326_a_at) / RFU OR2T12 /// OR2T33 /// OR2T8 (11738714_s_at) / Fold change /veh OR2T12 /// OR2T33 /// OR2T8 (11738714_s_at) / RFU VCAN (11748164_a_at) / Fold change /veh VCAN (11748164_a_at) / RFU JSRP1 (11732532_at) / Fold change /veh JSRP1 (11732532_at) / RFU KRTAP10-11 (11738290_x_at) / Fold change /veh KRTAP10-11 (11738290_x_at) / RFU MYO3A (11730013_a_at) / Fold change /veh MYO3A (11730013_a_at) / RFU EBF3 (11725865_a_at) / Fold change /veh EBF3 (11725865_a_at) / RFU CAMK2N1 (11719241_x_at) / Fold change /veh CAMK2N1 (11719241_x_at) / RFU C5orf56 (11738088_a_at) / Fold change /veh C5orf56 (11738088_a_at) / RFU OLFML3 (11715873_a_at) / Fold change /veh OLFML3 (11715873_a_at) / RFU LOC100653217 /// NTM (11731650_a_at) / Fold change /veh LOC100653217 /// NTM (11731650_a_at) / RFU MAPK11 (11762145_a_at) / Fold change /veh MAPK11 (11762145_a_at) / RFU FIZ1 (11724087_x_at) / Fold change /veh FIZ1 (11724087_x_at) / RFU OASL (11726364_x_at) / Fold change /veh OASL (11726364_x_at) / RFU SOX15 (11748057_x_at) / Fold change /veh SOX15 (11748057_x_at) / RFU CD79A (11719716_a_at) / Fold change /veh CD79A (11719716_a_at) / RFU HIST1H1D (11736915_at) / Fold change /veh HIST1H1D (11736915_at) / RFU CASKIN2 (11723855_a_at) / Fold change /veh CASKIN2 (11723855_a_at) / RFU LOC730098 (11760151_x_at) / Fold change /veh LOC730098 (11760151_x_at) / RFU OR4N2 (11742367_at) / Fold change /veh OR4N2 (11742367_at) / RFU PRRT2 (11749266_a_at) / Fold change /veh PRRT2 (11749266_a_at) / RFU SNX32 (11753110_a_at) / Fold change /veh SNX32 (11753110_a_at) / RFU CDHR5 (11726645_a_at) / Fold change /veh CDHR5 (11726645_a_at) / RFU RCAN1 (11760418_a_at) / Fold change /veh RCAN1 (11760418_a_at) / RFU FAM167A (11723789_a_at) / Fold change /veh FAM167A (11723789_a_at) / RFU FAM26E (11764081_at) / Fold change /veh FAM26E (11764081_at) / RFU ISYNA1 (11749810_s_at) / Fold change /veh ISYNA1 (11749810_s_at) / RFU ACY1 (11761880_at) / Fold change /veh ACY1 (11761880_at) / RFU 11764098_at / Fold change /veh 11764098_at / RFU SAMD14 (11745864_x_at) / Fold change /veh SAMD14 (11745864_x_at) / RFU NPB (11741838_a_at) / Fold change /veh NPB (11741838_a_at) / RFU TMPRSS6 (11731388_a_at) / Fold change /veh TMPRSS6 (11731388_a_at) / RFU KRTAP10-2 (11738614_at) / Fold change /veh KRTAP10-2 (11738614_at) / RFU ARHGAP8 /// PRR5-ARHGAP8 (11727945_x_at) / Fold change /veh ARHGAP8 /// PRR5-ARHGAP8 (11727945_x_at) / RFU KRTAP5-7 /// NADSYN1 (11734609_at) / Fold change /veh KRTAP5-7 /// NADSYN1 (11734609_at) / RFU RASL12 (11751679_a_at) / Fold change /veh RASL12 (11751679_a_at) / RFU CDKN2B (11736163_a_at) / Fold change /veh CDKN2B (11736163_a_at) / RFU PRF1 (11729649_at) / Fold change /veh PRF1 (11729649_at) / RFU, ZNF638 /// ZNF638-IT1 / Fold change vs veh, ZNF638 /// ZNF638-IT1 / RFU, PANK3 / Fold change vs veh, PANK3 / RFU, SH3YL1 / Fold change vs veh, SH3YL1 / RFU, ZEB2 / Fold change vs veh, ZEB2 / RFU, NRIP1 / Fold change vs veh, NRIP1 / RFU, PTTG1IP / Fold change vs veh, PTTG1IP / RFU, CAPN2 / Fold change vs veh, CAPN2 / RFU, MED14 / Fold change vs veh, MED14 / RFU, SNORA58 / Fold change vs veh, SNORA58 / RFU, C1orf63 / Fold change vs veh, C1orf63 / RFU, LRRFIP1 / Fold change vs veh, LRRFIP1 / RFU, NDUFAF7 / Fold change vs veh, NDUFAF7 / RFU, SLC12A2 / Fold change vs veh, SLC12A2 / RFU, IBTK / Fold change vs veh, IBTK / RFU, ESF1 / Fold change vs veh, ESF1 / Fold change vs veh, TMEM50B / RFU, TAOK1 / Fold change vs veh, TAOK1 / RFU, ACBD3 / Fold change vs veh, ACBD3 / RFU, TMA16 / Fold change vs veh, TMA16 / RFU, RWDD3 / Fold change vs veh, RWDD3 / RFU, BCAT1 / Fold change vs veh, BCAT1 / RFU, EDEM3 / Fold change vs veh, EDEM3 / RFU, TMEM33 / Fold change vs veh, TMEM33 / RFU, WDR75 / Fold change vs veh, WDR75 / RFU, AHCTF1 / Fold change vs veh, AHCTF1 / RFU, TFRC / Fold change vs veh, TFRC / RFU, ZDHHC17 / Fold change vs veh, ZDHHC17 / RFU, NOM1 / Fold change vs veh, NOM1 / RFU, ARL8B / Fold change vs veh, ARL8B / RFU, ZBTB11 / Fold change vs veh, ZBTB11 / RFU, TAMM41 / Fold change vs veh, TAMM41 / RFU, KIAA1704 /// LOC100996395 / Fold change vs veh, KIAA1704 /// LOC100996395 / RFU, ING1 / Fold change vs veh, ING1 / RFU, TRMT61B / Fold change vs veh, TRMT61B / RFU, FUBP3 / Fold change vs veh, FUBP3 / RFU, TP53 / Fold change vs veh, TP53 / RFU, TNKS2 / Fold change vs veh, TNKS2 / RFU, ZFP14 / Fold change vs veh, ZFP14 / RFU, ACTR2 / Fold change vs veh, ACTR2 / RFU, PPP3R1 / Fold change vs veh, PPP3R1 / RFU, PIK3R1 / Fold change vs veh, PIK3R1 / RFU, HNRNPA1 / Fold change vs veh, HNRNPA1 / RFU, RNF170 / Fold change vs veh, RNF170 / RFU, ZNF28 / Fold change vs veh, ZNF28 / RFU, RNGTT / Fold change vs veh, RNGTT / RFU, OGT / Fold change vs veh, OGT / RFU, BRD1 / Fold change vs veh, BRD1 / RFU, MARS / Fold change vs veh, MARS / RFU, ZNF655 / Fold change vs veh, ZNF655 / RFU, FAHD1 / Fold change vs veh, FAHD1 / RFU, BDP1 / Fold change vs veh, BDP1 / RFU, LRRCC1 / Fold change vs veh, LRRCC1 / RFU, ARID1A / Fold change vs veh, ARID1A / RFU, ZNF146 / Fold change vs veh, ZNF146 / RFU, ZNF330 / Fold change vs veh, ZNF330 / RFU, GPN3 / Fold change vs veh, GPN3 / RFU, C9orf123 / Fold change vs veh, C9orf123 / RFU, N4BP2L2 / Fold change vs veh, N4BP2L2 / RFU, ARFIP1 / Fold change vs veh, ARFIP1 / RFU, FAM179B / Fold change vs veh, FAM179B / RFU, BCL10 / Fold change vs veh, BCL10 / RFU, UHRF1BP1L / Fold change vs veh, UHRF1BP1L / RFU, BET1 / Fold change vs veh, BET1 / RFU, CNOT2 / Fold change vs veh, CNOT2 / RFU, ZNF268 / Fold change vs veh, ZNF268 / Fold change vs veh, ZNF507 / RFU, DGCR2 / Fold change vs veh, DGCR2 / RFU, WDSUB1 / Fold change vs veh, WDSUB1 / Fold change vs veh, HSP90B1 /// MIR3652 / RFU, ADSS / Fold change vs veh, ADSS / RFU, GK / Fold change vs veh, GK / RFU, ZNF148 / Fold change vs veh, ZNF148 / RFU, TAF9 / Fold change vs veh, TAF9 / RFU, SLC1A5 / Fold change vs veh, SLC1A5 / RFU, SLMO2 / Fold change vs veh, SLMO2 / RFU, ABCC4 / Fold change vs veh, ABCC4 / RFU, LOC101060439 /// RAP1B / Fold change vs veh, LOC101060439 /// RAP1B / RFU, RFX7 / Fold change vs veh, RFX7 / RFU, GTPBP10 / Fold change vs veh, GTPBP10 / RFU, CNEP1R1 / Fold change vs veh, CNEP1R1 / RFU, BIVM-ERCC5 /// ERCC5 / Fold change vs veh, BIVM-ERCC5 /// ERCC5 / RFU, ILF3 / Fold change vs veh, ILF3 / RFU 11762660_at / Fold change /veh 11762660_at / RFU VCAN (11757783_s_at) / Fold change /veh VCAN (11757783_s_at) / RFU DDX43 (11728927_at) / Fold change /veh DDX43 (11728927_at) / RFU KRT8 (11758188_x_at) / Fold change /veh KRT8 (11758188_x_at) / RFU NKD1 (11759106_at) / Fold change /veh NKD1 (11759106_at) / RFU SRD5A1 (11742802_a_at) / Fold change /veh SRD5A1 (11742802_a_at) / RFU TPSAB1 /// TPSB2 (11721975_s_at) / Fold change /veh TPSAB1 /// TPSB2 (11721975_s_at) / RFU GSTM3 (11746129_a_at) / Fold change /veh GSTM3 (11746129_a_at) / RFU IL23R (11737362_x_at) / Fold change /veh IL23R (11737362_x_at) / RFU TMEM51 (11727254_a_at) / Fold change /veh TMEM51 (11727254_a_at) / RFU PIWIL2 (11732686_x_at) / Fold change /veh PIWIL2 (11732686_x_at) / RFU ORM1 (11744905_x_at) / Fold change /veh ORM1 (11744905_x_at) / RFU CCDC152 (11743942_at) / Fold change /veh CCDC152 (11743942_at) / RFU ECM1 (11717891_a_at) / Fold change /veh ECM1 (11717891_a_at) / RFU IL23R (11748794_a_at) / Fold change /veh IL23R (11748794_a_at) / RFU TNFAIP8L3 (11732012_x_at) / Fold change /veh TNFAIP8L3 (11732012_x_at) / RFU MBOAT4 (11741988_at) / Fold change /veh MBOAT4 (11741988_at) / RFU 11764193_at / Fold change /veh 11764193_at / RFU TMEM53 (11763286_at) / Fold change /veh TMEM53 (11763286_at) / RFU MAGEB2 (11727129_at) / Fold change /veh MAGEB2 (11727129_at) / RFU TMEM200A (11744735_a_at) / Fold change /veh TMEM200A (11744735_a_at) / RFU CCDC152 (11751479_a_at) / Fold change /veh CCDC152 (11751479_a_at) / RFU FAM211A (11726209_a_at) / Fold change /veh FAM211A (11726209_a_at) / RFU RGS16 (11746705_a_at) / Fold change /veh RGS16 (11746705_a_at) / RFU VCAN (11755009_s_at) / Fold change /veh VCAN (11755009_s_at) / RFU RHOB (11743442_s_at) / Fold change /veh RHOB (11743442_s_at) / RFU RGS16 (11720943_a_at) / Fold change /veh RGS16 (11720943_a_at) / RFU RGS16 (11720944_at) / Fold change /veh RGS16 (11720944_at) / RFU, VPS4B / Fold change vs veh, VPS4B / RFU, CREB1 / Fold change vs veh, CREB1 / RFU, DNAJC13 / Fold change vs veh, DNAJC13 / RFU, GNAQ / Fold change vs veh, GNAQ / RFU, CDK5R1 / Fold change vs veh, CDK5R1 / RFU, ZRANB3 / Fold change vs veh, ZRANB3 / RFU, CUL4A / Fold change vs veh, CUL4A / RFU, CCNY / Fold change vs veh, CCNY / RFU, UFL1 / Fold change vs veh, UFL1 / RFU, COG3 / Fold change vs veh, COG3 / RFU, DIAPH2 / Fold change vs veh, DIAPH2 / RFU, SKA2 / Fold change vs veh, SKA2 / RFU, AFF3 / Fold change vs veh, AFF3 / RFU, LMF1 / Fold change vs veh, LMF1 / RFU, IPO11 / Fold change vs veh, IPO11 / RFU, DFFB / Fold change vs veh, DFFB / RFU, FOXP1 / Fold change vs veh, FOXP1 / RFU, CARD8 / Fold change vs veh, CARD8 / RFU, STRN3 / Fold change vs veh, STRN3 / RFU, ADK / Fold change vs veh, ADK / RFU, RASSF2 / Fold change vs veh, RASSF2 / RFU, WIPF1 / Fold change vs veh, WIPF1 / RFU, LARP1B / Fold change vs veh, LARP1B / RFU, RASA1 / Fold change vs veh, RASA1 / RFU, RB1 / Fold change vs veh, RB1 / RFU, PPFIA1 / Fold change vs veh, PPFIA1 / RFU, MAT2A / Fold change vs veh, MAT2A / RFU, CCT5 / Fold change vs veh, CCT5 / RFU, WDR92 / Fold change vs veh, WDR92 / RFU, CUX1 / Fold change vs veh, CUX1 / RFU, TTC7A / Fold change vs veh, TTC7A / RFU, TMEM135 / Fold change vs veh, TMEM135 / RFU, DEPTOR / Fold change vs veh, DEPTOR / RFU, CPM / Fold change vs veh, CPM / RFU, DNAJB6 / Fold change vs veh, DNAJB6 / RFU, CACNA2D3 / Fold change vs veh, CACNA2D3 / RFU, DTX4 / Fold change vs veh, DTX4 / RFU, TFCP2 / Fold change vs veh, TFCP2 / RFU, GMCL1 /// GMCL1P1 / Fold change vs veh, GMCL1 /// GMCL1P1 / RFU, AEBP2 / Fold change vs veh, AEBP2 / RFU, SNHG1 /// SNORD22 /// SNORD25 /// SNORD26 /// SNORD27 /// SNORD28 /// SNORD29 /// SNORD31 / Fold change vs veh, SNHG1 /// SNORD22 /// SNORD25 /// SNORD26 /// SNORD27 /// SNORD28 /// SNORD29 /// SNORD31 / Fold change (Aza/veh), C12orf56 (ProbeSet 11735607_a_at) / Fold change (ACY-1035/veh), C12orf56 (ProbeSet 11735607_a_at) / Fold change (Aza/veh), FGFR1OP (ProbeSet 11751329_s_at) / Fold change (ACY-1035/veh), FGFR1OP (ProbeSet 11751329_s_at) / Fold change (Aza/veh), VPS36 (ProbeSet 11739960_a_at) / Fold change (ACY-1035/veh), VPS36 (ProbeSet 11739960_a_at) / RFU SYPL1 (11715823_x_at) / Fold change /veh SYPL1 (11715823_x_at) / RFU IGFBP7 (11715501_s_at) / Fold change /veh IGFBP7 (11715501_s_at) / RFU REEP3 (11722064_at) / Fold change /veh REEP3 (11722064_at) / RFU IGLL1 (11728026_x_at) / Fold change /veh IGLL1 (11728026_x_at): dose or concentration left out as unconfirmed
Settings: MV-4-11 cells, 48 hours

## Nc1ccc(-c2cccs2)cc1NC(=O)c1ccc2c(c1)cc(C1CC1)n2CCN1CCOCC1 [ACY-1035]
  Fold change /veh C5orf56 (11738088_a_at): 0.99
